According to patent US20090239877A1, “NOVEL 1,2,4-TRIAZOLE DERIVATIVES AND PROCESS OF MANUFACTURING THEREOF” (AETERNA ZENTARIS GmbH, priority 2008, published 2009):

Experiments:
human GHS-R 1a [1] = biological target: T1, human GHS-R 1a (Homo sapiens, UniProt Q92847); experiment: GHS-R 1a receptor-ligand binding assay (membrane preparations from transfected LLC PK-1 cells); parameters: expressed in transfected cells; details: displacement of 125I-His9-ghrelin; plasma membranes of LLC PK-1 cells transiently transfected with human GHS-R 1a; mean of at least two independent experiments in triplicates
Experimental: II) GHS-R 1a Receptor-Ligand Binding Assay (Membrane Preparations from Transfected LLC PK-1 Cells)
The GHS-R 1a receptor binding/affinity studies were performed according to Guerlavais et al. (J. Med. Chem. 2003, 46: 1191-1203).
Isolated plasma membranes from LLC PK-1 cells, a renal epithelial cell line originally derived from porcine kidneys (ECACC No. 86121112) (10 μg of protein), that were transiently transfected with human GHS-R 1a cDNA (Guerlavais et al., J. Med. Chem. 2003, 46: 1191-1203), were incubated in homogenization buffer HB [50 mM Tris (pH 7.3), 5 mM MgCl2, 2.5 mM EDTA, and 30 μg/mL bacitracin (Sigma)] for 60 min at 25° C. (steady-state conditions) with […] ^125I-His^9-ghrelin (Amersham) in the presence or absence of competing compounds (compounds of the invention).
Nonspecific binding was defined using an excess (10^−6 M) of ghrelin. The binding reaction was stopped by addition of 4 mL of ice-cold HB followed by rapid filtration over Whatman GP/C filters presoaked with 0.5% polyethyleneimine to prevent excessive binding of radioligand to the filters. Filters were rinsed three times with 3 mL of icecold wash buffer [50 mM Tris (pH 7.3), 10 mM MgCl2, 2.5 mM EDTA, and 0.015% (w/v) X-100 Triton], and the radioactivity bound to membranes was measured in a gammacounter (Kontron Analytical Gamma Matic, Automatic gamma counting system).
The concentration of test compounds required to inhibit radiolabelled ghrelin binding by 50% (IC50) was determined by fitting competitive binding curves using non-linear regression (PRISM 3.0, Graph Pad San Diego, USA).
In the following table 2 results obtained for selected compounds of the invention are presented in comparison to an example of the prior art. IC50 values given are the mean of at least two independent experiments performed in triplicates.

human GHS-R 1a [2] = biological target: T1, human GHS-R 1a; experiment: In vitro intracellular calcium release assay using human GHS-R 1a transfected CHO cells; type: cell-based; parameters: expressed in transfected cells; host or cells: CHO-K1 Chinese hamster ovary cells (ATCC No. CCL-61), transient transfection by electroporation; details: for EC50: agonists, dose-response curve of intracellular calcium release; for activation at 1 µM: intracellular calcium release, compound at 10^-6 M, relative to basal level (0%) and 1 μM ghrelin (100%)
Experimental: The ability to properly activate the receptors is assessed for any compound of the invention by comparing the degree of activation (increase of intracellular calcium) of GHS-R 1a by the compound to be tested (at 10^−6 M concentration) to the degree of activation (increase of intracellular calcium) of GHS-R 1a by 10^−6 M ghrelin (100%) and to the basal level (0%). Such assessment can be readily performed by the skilled artisan due to his expert knowledge. The output is a percentage value for each compound to be tested. […]
III) In Vitro Intracellular Calcium Release Assay Using Human GHS-R 1a Transfected CHO Cells
The potential of the compounds of the invention to modulate GHS receptor activity was assessed by an in vitro intracellular Calcium release assay employing CHO cells that were transfected with human GHS-R 1a.
Release of intracellular calcium or inhibition thereof was measured using the fluorescent calcium indicator assay (FLIPR) and Fluo-4 AM.
CHO cells (CHO-KI Chinese Hamster Ovary cell line, ATCC No. CCL-61) were transiently transfected with human GHS-R 1a cDNA by electroporation and plated into 96-well black bottom plates (Corning 3603) (80,000 cells/well). Transient transfections were performed using the Easyject Optima Electroporator (Equibio), according to the manufacturer's instructions.
Transfected cells were grown in Dulbecco's modified Eagle's medium without phenol red, supplemented with 10% (v/v) non-essential amino acids, […] glutamine and streptomycin-penicillin (250 μg/ml-250 u/ml) (all purchased from Cambrex) at 37° C., 5% CO2 in a humidified atmosphere for 24 hours.
After incubation, transfected cells were washed with 150 μl Buffer A [Hanks' balanced salt solution (Sigma H-6648), 0.5% (v/v) BSA (Sigma A-7906), 20 mM CaCl2, 2.5 mM probenecid (pH 7.4, dissolved in 1 M NaOH) (Sigma P-8761)] and were then loaded with fluorescent calcium indicator Fluo-4 AM (10^−6 M) (Interchim UP72972) prepared in Buffer A, additionally containing 0.06% pluronic acid (Molecular probes P-6867) (a […] detergent which facilitates Fluo-4AM ester loading). (Loading: 100 μl per well of Buffer A containing 120 μl/ml Pluronic Acid and 1 μM Fluo-4AM was added to the cells).
After loading with Fluo-4 AM, transfected cells were incubated for 1 hour in the dark at 37° C.
Compounds to be tested were dissolved in Buffer A in triplicates at a concentration of 10^−6 M and distributed into another 96-well plate (Fisher Labosi A1210500).
Following incubation, excess Fluo-4AM was removed, 100 μl of Buffer A was added to each well at room temperature and immediately removed by aspiration. This was then repeated, before adding 50 μl Buffer A to each well.
Transfected cells were further incubated room temperature for 30 min to allow complete de-esterification of intracellular Fluo-4AM esters.
Subsequently, both plates, the black-bottom plate containing transfected cells and the microtiter plate containing the compounds to be tested, were then placed into a temperature-regulated (25° C.) FlexStation machine (benchtop scanning fluorometer Flex Station II, Molecular Devices, Sunnyvale, Calif., USA) for fluorescence output measurements.
Basal fluorescence output from the transfected cells was measured for 15 sec and then 50 μl of the compounds to be tested were automatically distributed into the wells containing the transfected cells. The fluorescence output was then recorded for a further 45 sec.
Excitation and emission wavelengths were 485 nm and 525 nm, respectively. Basal fluorescence intensity of Fluo-4AM-loaded transfected cells without compounds to be tested varied between 800-1200 arbitrary units, whereas maximal fluorescence output of dye-loaded transfected cells upon incubation with the compounds to be tested varied between 5000-7000 arbitrary units and was equivalent to that achieved by stimulation of dye-loaded transfected cells with 10^−6 M ghrelin. […]

T1 sequence (Q92847 whole entry): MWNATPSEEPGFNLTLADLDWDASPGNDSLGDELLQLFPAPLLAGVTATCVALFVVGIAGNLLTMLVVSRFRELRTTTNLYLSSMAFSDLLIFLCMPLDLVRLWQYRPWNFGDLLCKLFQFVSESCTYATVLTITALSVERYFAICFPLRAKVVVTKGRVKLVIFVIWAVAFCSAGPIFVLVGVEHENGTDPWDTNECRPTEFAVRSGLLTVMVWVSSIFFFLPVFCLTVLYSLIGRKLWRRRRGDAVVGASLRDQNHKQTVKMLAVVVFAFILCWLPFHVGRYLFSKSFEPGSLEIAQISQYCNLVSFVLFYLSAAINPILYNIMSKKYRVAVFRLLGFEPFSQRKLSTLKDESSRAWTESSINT

Row | SMILES | IC50 (human GHS-R 1a [1]) | EC50 (human GHS-R 1a [2]) | activation at 1 µM (human GHS-R 1a [2])
1 | O=C(N[C@H](Cc1c[nH]c2ccccc12)c1nnc(CCc2c[nH]c3ccccc23)n1Cc1cccc2ccccc12)C1CCNCC1 [Compound 17, N-((R)-1-(5-(2-(1H-indol-3-yl)ethyl)-4-((naphthalen-1-yl)methyl)-4H-1,2,4-triazol-3-yl)-2-(1H-indol-3-yl)ethyl)piperidine-4-carboxamide] | 4 nM | 2.4 nM | 94%
2 | NC1(C(=O)N[C@H](Cc2c[nH]c3ccccc23)c2nnc(CCCc3c[nH]c4ccccc34)n2Cc2ccccc2)CCNCC1 [Compound 43, N-((R)-1-(5-(3-(1H-indol-3-yl)propyl)-4-benzyl-4H-1,2,4-triazol-3-yl)-2-(1H-indol-3-yl)ethyl)-4-aminopiperidine-4-carboxamide] | 35 nM | 6.4 nM | –
3 | COc1ccc(Cn2c(CCc3c[nH]c4ccccc34)nnc2[C@@H](Cc2c[nH]c3ccccc23)NC(=O)C2(N)CCNCC2)cc1 [Compound 47, N-((R)-1-(5-(2-(1H-indol-3-yl)ethyl)-4-(4-methoxybenzyl)-4H-1,2,4-triazol-3-yl)-2-(1H-indol-3-yl)ethyl)-4-aminopiperidine-4-carboxamide] | 150 nM | 38 nM | 100%
4 | COc1ccc(Cn2c(CCc3ccccc3)nnc2[C@@H](Cc2c[nH]c3ccccc23)NC(=O)[C@H]2CNCCN2)cc1 [Compound 2, (2R)-N-((R)-1-(4-(4-methoxybenzyl)-5-phenethyl-4H-1,2,4-triazol-3-yl)-2-(1H-indol-3-yl)ethyl)piperazine-2-carboxamide] | 143 nM | 17 nM | 40%
5 | O=C(N[C@H](Cc1c[nH]c2ccccc12)c1nnc(CCCc2c[nH]c3ccccc23)n1Cc1cccc2ccccc12)C1CCNCC1 [Compound 39, N-((R)-1-(5-(3-(1H-indol-3-yl)propyl)-4-((naphthalen-1-yl)methyl)-4H-1,2,4-triazol-3-yl)-2-(1H-indol-3-yl)ethyl)piperidine-4-carboxamide] | 21.1 nM | 1 nM | –
6 | COc1ccc(Cn2c(CCc3cc4ccccc4[nH]3)nnc2[C@@H](Cc2c[nH]c3ccccc23)NC(=O)C2(N)CCNCC2)cc1 [Compound 3, N-((R)-1-(5-(2-(1H-indol-2-yl)ethyl)-4-(4-methoxybenzyl)-4H-1,2,4-triazol-3-yl)-2-(1H-indol-3-yl)ethyl)-4-aminopiperidine-4-carboxamide] | 16 nM | 4.4 nM | 106%
7 | COc1ccc(Cn2c(CCc3ccccc3)nnc2[C@@H](Cc2c[nH]c3ccccc23)NC(=O)c2ccccc2)c(OC)c1 [Compound 5, N-((R)-1-(4-(2,4-dimethoxybenzyl)-5-phenethyl-4H-1,2,4-triazol-3-yl)-2-(1H-indol-3-yl)ethyl)benzamide] | 11.8 nM | 16 nM | 31%
8 | COc1ccc(Cn2c(CCc3ccccc3)nnc2[C@@H](Cc2c[nH]c3ccccc23)NC(=O)C2(N)CCNCC2)c(OC)c1 [Compound 10, N-((R)-1-(4-(2,4-dimethoxybenzyl)-5-phenethyl-4H-1,2,4-triazol-3-yl)-2-(1H-indol-3-yl)ethyl)-4-aminopiperidine-4-carboxamide] | 1.3 nM | 2 nM | 100%
9 | O=C(N[C@H](Cc1c[nH]c2ccccc12)c1nnc(CCc2c[nH]c3ccccc23)n1Cc1cccc2ccccc12)[C@@H]1CCCN1 [Compound 31, (2S)-N-((R)-1-(5-(2-(1H-indol-3-yl)ethyl)-4-((naphthalen-1-yl)methyl)-4H-1,2,4-triazol-3-yl)-2-(1H-indol-3-yl)ethyl)pyrrolidine-2-carboxamide] | 505 nM | 2.7 nM | 100%
10 | COc1cccc(Cn2c(CCCc3ccccc3)nnc2[C@@H](Cc2c[nH]c3ccccc23)NC(=O)C(C)(C)N)c1 [Compound 1, N-((R)-1-(4-(3-methoxybenzyl)-5-(3-phenylpropyl)-4H-1,2,4-triazol-3-yl)-2-(1H-indol-3-yl)ethyl)-2-amino-2-methylpropanamide] | 380 nM | – | 47%
11 | O=C(N[C@H](Cc1c[nH]c2ccccc12)c1nnc(CCc2ccccc2)n1Cc1cccc2ccccc12)C1CCNCC1 [Compound 15, N-((R)-2-(1H-indol-3-yl)-1-(4-((naphthalen-1-yl)methyl)-5-phenethyl-4H-1,2,4-triazol-3-yl)ethyl)piperidine-4-carboxamide] | 17 nM | 2 nM | 120%
12 | O=C(N[C@H](Cc1c[nH]c2ccccc12)c1nnc(CCc2c[nH]c3ccccc23)n1Cc1cccc2ccccc12)c1ccccn1 [Compound 18, N-((R)-1-(5-(2-(1H-indol-3-yl)ethyl)-4-((naphthalen-1-yl)methyl)-4H-1,2,4-triazol-3-yl)-2-(1H-indol-3-yl)ethyl)picolinamide] | 5.3 nM | – | 1%
13 | O=C(N[C@H](Cc1c[nH]c2ccccc12)c1nnc(Cc2ccccc2)n1Cc1ccc(Cl)c(Cl)c1)C1CCNCC1 [Compound 33, N-((R)-1-(4-(3,4-dichlorobenzyl)-5-benzyl-4H-1,2,4-triazol-3-yl)-2-(1H-indol-3-yl)ethyl)piperidine-4-carboxamide] | 5 nM | 1.5 nM | 120%
14 | O=C(N[C@H](Cc1c[nH]c2ccccc12)c1nnc(Cc2ccccc2)n1Cc1ccc(Cl)c(Cl)c1)[C@@H]1CCCN1 [Compound 35, (2S)-N-((R)-1-(4-(3,4-dichlorobenzyl)-5-benzyl-4H-1,2,4-triazol-3-yl)-2-(1H-indol-3-yl)ethyl)pyrrolidine-2-carboxamide] | – | 17 nM | 60%
15 | COc1ccc(Cn2c(CCc3ccccc3)nnc2[C@@H](Cc2ccc3ccccc3c2)NC(=O)C2CCNCC2)cc1 [Compound 54, N-((R)-1-(4-(4-methoxybenzyl)-5-phenethyl-4H-1,2,4-triazol-3-yl)-2-(naphthalen-2-yl)ethyl)piperidine-4-carboxamide] | 0.3 nM | – | –
